Assay results from publication PMC6497546 (Molecular cancer therapeutics, 2019).

Test system: AR42J tumor
Assay: Combination efficacy study with 5-fluorouracil
Format: in vivo, mice
Conditions: 5-fluorouracil alone, 15mg/kg once per week for nine weeks; post cell injection

Molecule `O=c1[nH]cc(F)c(=O)[nH]1` [5-fluorouracil] has a median survival of 2.4 weeks.
